These results are taken from article PMC9319939, “Siccanin Is a Dual-Target Inhibitor of Plasmodium falciparum Mitochondrial Complex II and Complex III” (Pharmaceuticals, 2022).

Molecules are shown by their SMILES.

In test [1] the test system is Δsdha-3D7 P. falciparum. Briefly: Drug sensitivity assay, 72 h, PfLDH-based, sdha-disrupted strain. Particulars: Plasmodium falciparum, 3D7, read-out: Growth IC50, Δsdha-3D7. The format is cell-based. The method, then: The P. falciparum 3D7 strain was cultured, as described previously, in 3% hematocrit type A human red blood cells (RBCs) in RPMI1640 medium (Invitrogen; San Diego, CA, USA) supplemented with 25 mM sodium hydrogen biocarbonate, 10 μg/mL hypoxanthine, 40 μg/mL gentamicin sulfate, and 0.5% (w/v) Albumax II (Invitrogen) (“complete medium”). Cultures were maintained in a MG-70M multi-gas incubator (Taitec) under the conditions of 5% O2, 5% CO2, and 90% N2 at 37 °C. The medium was replaced daily. Parasitemia was measured by thin blood smears stained with Giemsa. In our previous study, we generated mutant P. falciparum strains expressing either disrupted or full-length versions of the flavoprotein (Fp) subunit (encoded by the Pfsdha gene). […]
Synchronized ring-form parasites (0.3% parasitemia) were prepared in complete medium containing different concentration of various compounds (at a fixed final DMSO concentration of 0.1% (v/v)) and distributed to 96-well plates at 100 μL/well. After 72 h of incubation, parasite growth was monitored by the previously described lactate dehydrogenase (PfLDH)-based assay method; plates were read using a SpectraMax® Paradigm spectrophotometer (Molecular Devices, Inc.; San Jose, CA, USA). EC50 values were calculated using Prism® ver.6.01 (GraphPad; San Diego, CA, USA). […]

Test [2] concerns Dd2_GNF (Carl-I1139K mutation). In words: Growth inhibition of Dd2_GNF (GNF156-resistant). The format is cell-based. Particulars: Plasmodium falciparum, read-out: Growth inhibition EC50, GNF. The method, then: (§1) P. falciparum 3D7-yDHODH was prepared and maintained as described previously. P. falciparum Dd2, and Dd2-derived mutant strains were kindly provided by David A. Fidock, and maintained at Nagasaki University essentially as described in reference, except without supplementation with WR99210.
(§2) Synchronized ring-form parasites (0.3% parasitemia) were prepared in complete medium containing different concentration of various compounds (at a fixed final DMSO concentration of 0.1% (v/v)) and distributed to 96-well plates at 100 μL/well. After 72 h of incubation, parasite growth was monitored by the previously described lactate dehydrogenase (PfLDH)-based assay method; plates were read using a SpectraMax® Paradigm spectrophotometer (Molecular Devices, Inc.; San Jose, CA, USA). EC50 values were calculated using Prism® ver.6.01 (GraphPad; San Diego, CA, USA). Values are presented as the means of three independent experiments.

In test [3] the test system is Dd2_DDD (eEF2-Y186N mutation). In words: Growth inhibition of Dd2_DDD (DDD107498-resistant). The format is cell-based. Particulars: Plasmodium falciparum, read-out: Growth inhibition EC50, DDD. Here is the method: as §1, §2
Test [4] relates to T. mentagrophytes complex II. Also noted: method as in PMID 4250609. Particulars: ref [31]; read-out: IC50, T. mentagrophytes enzyme; cited from earlier work.
Test [5] deals with Dd2_DHIQ (ATP4-G358S mutation). Briefly: Growth inhibition of Dd2_DHIQ (cipargamin-resistant). The test is classed as cell-based. The following applies: Plasmodium falciparum, read-out: Growth inhibition EC50, DHIQ. The method, then:
as §1, §2

The subject of test [6] is P. falciparum Dd2. In words: Growth inhibition of Dd2 parent. The test is classed as cell-based. Particulars: Plasmodium falciparum, DD2, read-out: Growth inhibition EC50, Dd2. Here is the method: as §1, §2
Test [7] has as its system P. falciparum 3D7-yDHODH. Briefly: Growth inhibition of yeast DHODH-expressing strain. The format is cell-based. Particulars: Plasmodium falciparum, 3D7, read-out: Growth inhibition EC50, 3D7-yDHODH. The method, then: as §1, §2
In test [8] the test system is DLD-1 cells. Briefly: Mammalian cell cytotoxicity assay, CCK8, 48 h. The format is cell-based. Particulars: Homo sapiens. Here is the method: (§3) Human colorectal adenocarcinoma cells (DLD-1) and Human Dermal Fibroblasts (HDF) cells were obtained from Taiho Pharmaceutical Company (Tokyo, Japan). DLD-1 cells were cultured in RPMI 1640 medium supplemented with 10% (v/v) heat-inactivated fetal bovine serum (FBS) (Gibco; San Diego, CA, USA); HDF cells were cultured in DMEM/F12 medium supplemented with 10% (v/v) heat-inactivated FBS. For both lines, cells were grown under 5% CO2 at 37 °C in an ACI-165D CO2 incubator (ASTEC; Fukuoka, Japan).
(§4) DLD-1 and HDF cells, (2.5 × 10^4 cells/mL) in 96-well plates, were cultured for 24 h. The cells then were washed with phosphate-buffered saline (PBS) and the medium was replaced with fresh medium supplemented with 10% (v/v) FBS. Medium containing siccanin at various concentrations was added to the wells and the cells were cultured for another 48 h. Controls were treated with medium containing 1% (v/v) DMSO and 10% (v/v) FBS. Next, the cells were washed with PBS and the medium was replaced with fresh medium supplemented with 10% (v/v) FBS. An aliquot (10 µL) of CCK8 solution (Cell Counting Kit-8; Dojindo Laboratories; Kumamoto, Japan) was added to each well and the plates were incubated for another 2 h, at which point absorbance at 450 nm was monitored using a SpectraMax® Paradigm spectrophotometer. The EC50 values were calculated using Prism® ver.6.01. The selectivity was calculated as the ratio between DLD-1 or HDF versus P. falciparum IC50s.

In test [9] the test system is HDF cells. Briefly: Mammalian cell cytotoxicity assay, CCK8, 48 h. The format is cell-based. Particulars: Homo sapiens. Here is the method: as §3, §4
Test [10] has as its system P. falciparum 3D7 strain. In words: Isobologram analysis with atovaquone and siccanin, PfLDH-based. The test is classed as cell-based, Plasmodium falciparum. The method, then:
The effect of the combination of atovaquone and siccanin was evaluated using isobologram analysis to evaluate the synergy, additivity, or antagonism between the two compounds [51, 83]. Synchronized ring-form parasites (0.3% parasitemia) were prepared in complete medium containing different concentrations of siccanin and atovaquone (at a fixed final DMSO concentration of 0.2% (v/v)) and distributed to 96-well plates at 100 μL/well. After 72 h of incubation, parasite growth was monitored by the previously described PfLDH-based assay using a SpectraMax® Paradigm spectrophotometer. IC50 values were calculated using Prism® ver.6.01. Data represent the means of three independent experiments, each performed in triplicate. The isobologram analysis was performed as described previously. For each combination assay, IC50s were calculated from each culture of P. falciparum grown in the presence of atovaquone or siccanin alone and in combination of various concentrations of the two compounds. The fractional inhibitory concentration (FIC) value was determined using the following equation: FIC =IC50 of compound in mixture/IC50 of compound alone
The combination index (CI) value was determined using the following equation: CI =IC50 of atovaquone in mixture/IC50 of atovaquone alone+IC50 of siccanin in mixture/IC50 of siccanin alone […]

For orientation: IC50 means the concentration at which inhibition is half-maximal. As for `Cc1cc(O)c2c(c1)O[C@@]1(C)CC[C@H]3C(C)(C)CCC[C@]34CO[C@@H]2[C@H]41` [Siccanin], the IC50 was 6.13 ± 0.91 µM in test [1]; approximately 0.09 µM in test [4]; 34.2 µM in test [8] (DLD-1 cells, read-out: Siccanin IC50, Mammal, Growth); 16.1 µM in test [9] (HDF cells, read-out: Siccanin IC50, Mammal, Growth). Besides, the EC50 in [2] turned out to be 13.4 µM; in [3], 13.1 µM; in test [5], 16.4 µM; in test [6] it was 12.4 µM; in [7], 10.3 µM; in test [8] (DLD-1, 48 h, read-out: 50% effective concentration (EC50), growth of DLD-1 cells), 34.2 ± 2.73 µM. For the same molecule, the EC50 in [9] (HDF, 48 h, read-out: 50% effective concentration (EC50), growth of HDF cells) came to 16.1 ± 1.21 µM. Besides, in [10] (combination of siccanin and atovaquone, 3D7, 72 h), the Combination index turned out to be 1.0. In [10] (isobologram, 3D7), the “Combinatory effect with atovaquone” value is reported as “additive effect”.
